Assay results from the supplement of paper PMC4862054.
“And” between values parts separate entries of the source, which are not always exact repeats. Equal values may be shown once.

tested on: MFM-223; experiment: normalised viability (% of control), CellTiter-Blue; higher = more viable cells (about 100 = DMSO control); settings: 100 nM; incubation time: 72 h
Procedure, shortened: (§1)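 After 72 h on compound-loaded 384-well plates, breast cancer cell lines received 2.5 µl CellTiter-Blue reagent for 2 h at 37 °C. Fluorescence at 560/590 nm was scaled per plate so that vehicle was 100 and a positive kill control was 0. The value stands for normalised viability at a single listed concentration of the series.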

Compound | normalised viability [%]
CC(C)(C)c1cc(NC(=O)Nc2ccc(-c3cn4c(n3)sc3cc(OCCN5CCOCC5)ccc34)cc2)no1 [Quizartinib] | 86.4

same assay, conditions: 1000 nM; incubation time: 72 h

Compound | normalised viability
CC(C)(C)c1cc(NC(=O)Nc2ccc(-c3cn4c(n3)sc3cc(OCCN5CCOCC5)ccc34)cc2)no1 [Quizartinib] | 83.8%
CS(=O)(=O)CCNCc1ccc(-c2ccc3ncnc(Nc4ccc(OCc5cccc(F)c5)c(Cl)c4)c3c2)o1 [Lapatinib] | 95.8% and 96.9%
COC1=C2C[C@@H](C)C[C@H](OC)[C@H](O)[C@@H](C)/C=C(\C)[C@H](OC(N)=O)[C@@H](OC)/C=C\C=C(/C)C(=O)NC(=CC1=O)C2=O [Geldanamycin] | 17.7%
c1ccc(C2CN3CCSC3=N2)cc1 (stereo not given) [Tetramisole] | 96.4%
COc1cc(Nc2ncc(F)c(Nc3ccc4c(n3)NC(=O)C(C)(C)O4)n2)cc(OC)c1OC [R406] | 89.5%
O=P(O)(NCCCl)NCCCl [Ifosfamide mustard] | 83.3%

same assay, conditions: 10000 nM; incubation time: 72 h

Compound | normalised viability
CS(=O)(=O)CCNCc1ccc(-c2ccc3ncnc(Nc4ccc(OCc5cccc(F)c5)c(Cl)c4)c3c2)o1 [Lapatinib] | 49.5% and 66%
COC1=C2C[C@@H](C)C[C@H](OC)[C@H](O)[C@@H](C)/C=C(\C)[C@H](OC(N)=O)[C@@H](OC)/C=C\C=C(/C)C(=O)NC(=CC1=O)C2=O [Geldanamycin] | 8.14%
c1ccc(C2CN3CCSC3=N2)cc1 (stereo not given) [Tetramisole] | 90.3%
COc1cc(Nc2ncc(F)c(Nc3ccc4c(n3)NC(=O)C(C)(C)O4)n2)cc(OC)c1OC [R406] | 85.4%
O=P(O)(NCCCl)NCCCl [Ifosfamide mustard] | 97%

tested on: CAL-85-1; experiment: as above; settings: 0.3 nM; incubation time: 72 h
Procedure, shortened: as §1

Compound | normalised viability [%]
CC(C)(C)c1cc(NC(=O)Nc2ccc(-c3cn4c(n3)sc3cc(OCCN5CCOCC5)ccc34)cc2)no1 [Quizartinib] | 96.9

same assay, conditions: 3 nM; incubation time: 72 h

Compound | normalised viability
CC(C)(C)c1cc(NC(=O)Nc2ccc(-c3cn4c(n3)sc3cc(OCCN5CCOCC5)ccc34)cc2)no1 [Quizartinib] | 97.8%
CS(=O)(=O)CCNCc1ccc(-c2ccc3ncnc(Nc4ccc(OCc5cccc(F)c5)c(Cl)c4)c3c2)o1 [Lapatinib] | 97.7% and 91.7%
COC1=C2C[C@@H](C)C[C@H](OC)[C@H](O)[C@@H](C)/C=C(\C)[C@H](OC(N)=O)[C@@H](OC)/C=C\C=C(/C)C(=O)NC(=CC1=O)C2=O [Geldanamycin] | 104%
c1ccc(C2CN3CCSC3=N2)cc1 (stereo not given) [Tetramisole] | 104%
COc1cc(Nc2ncc(F)c(Nc3ccc4c(n3)NC(=O)C(C)(C)O4)n2)cc(OC)c1OC [R406] | 93.8%
O=P(O)(NCCCl)NCCCl [Ifosfamide mustard] | 96%

same assay, conditions: 10 nM; incubation time: 72 h

Compound | normalised viability [%]
CC(C)(C)c1cc(NC(=O)Nc2ccc(-c3cn4c(n3)sc3cc(OCCN5CCOCC5)ccc34)cc2)no1 [Quizartinib] | 105

same assay, conditions: 30 nM; incubation time: 72 h

Compound | normalised viability
CS(=O)(=O)CCNCc1ccc(-c2ccc3ncnc(Nc4ccc(OCc5cccc(F)c5)c(Cl)c4)c3c2)o1 [Lapatinib] | 90.3% and 92.4%
COC1=C2C[C@@H](C)C[C@H](OC)[C@H](O)[C@@H](C)/C=C(\C)[C@H](OC(N)=O)[C@@H](OC)/C=C\C=C(/C)C(=O)NC(=CC1=O)C2=O [Geldanamycin] | 87.4%
c1ccc(C2CN3CCSC3=N2)cc1 (stereo not given) [Tetramisole] | 92.8%
COc1cc(Nc2ncc(F)c(Nc3ccc4c(n3)NC(=O)C(C)(C)O4)n2)cc(OC)c1OC [R406] | 87.8%
O=P(O)(NCCCl)NCCCl [Ifosfamide mustard] | 90.9%

same assay, conditions: 100 nM; incubation time: 72 h

Compound | normalised viability
CS(=O)(=O)CCNCc1ccc(-c2ccc3ncnc(Nc4ccc(OCc5cccc(F)c5)c(Cl)c4)c3c2)o1 [Lapatinib] | 94.6% and 91.4%
COC1=C2C[C@@H](C)C[C@H](OC)[C@H](O)[C@@H](C)/C=C(\C)[C@H](OC(N)=O)[C@@H](OC)/C=C\C=C(/C)C(=O)NC(=CC1=O)C2=O [Geldanamycin] | 99.2%
c1ccc(C2CN3CCSC3=N2)cc1 (stereo not given) [Tetramisole] | 99.4%
COc1cc(Nc2ncc(F)c(Nc3ccc4c(n3)NC(=O)C(C)(C)O4)n2)cc(OC)c1OC [R406] | 97.5%
O=P(O)(NCCCl)NCCCl [Ifosfamide mustard] | 99.1%

tested on: MDA-MB-453; experiment: as above; settings: 0.3 nM; incubation time: 72 h
Procedure, shortened: as §1

Compound | normalised viability [%]
CC(C)(C)c1cc(NC(=O)Nc2ccc(-c3cn4c(n3)sc3cc(OCCN5CCOCC5)ccc34)cc2)no1 [Quizartinib] | 118

same assay, conditions: 3 nM; incubation time: 72 h

Compound | normalised viability
CC(C)(C)c1cc(NC(=O)Nc2ccc(-c3cn4c(n3)sc3cc(OCCN5CCOCC5)ccc34)cc2)no1 [Quizartinib] | 110%
CS(=O)(=O)CCNCc1ccc(-c2ccc3ncnc(Nc4ccc(OCc5cccc(F)c5)c(Cl)c4)c3c2)o1 [Lapatinib] | 100% and 118%
COC1=C2C[C@@H](C)C[C@H](OC)[C@H](O)[C@@H](C)/C=C(\C)[C@H](OC(N)=O)[C@@H](OC)/C=C\C=C(/C)C(=O)NC(=CC1=O)C2=O [Geldanamycin] | 121%
c1ccc(C2CN3CCSC3=N2)cc1 (stereo not given) [Tetramisole] | 93.6%
COc1cc(Nc2ncc(F)c(Nc3ccc4c(n3)NC(=O)C(C)(C)O4)n2)cc(OC)c1OC [R406] | 119%
O=P(O)(NCCCl)NCCCl [Ifosfamide mustard] | 115%

same assay, conditions: 10 nM; incubation time: 72 h

Compound | normalised viability [%]
CC(C)(C)c1cc(NC(=O)Nc2ccc(-c3cn4c(n3)sc3cc(OCCN5CCOCC5)ccc34)cc2)no1 [Quizartinib] | 105

same assay, conditions: 30 nM; incubation time: 72 h

Compound | normalised viability
CS(=O)(=O)CCNCc1ccc(-c2ccc3ncnc(Nc4ccc(OCc5cccc(F)c5)c(Cl)c4)c3c2)o1 [Lapatinib] | 72.4% and 85.8%
COC1=C2C[C@@H](C)C[C@H](OC)[C@H](O)[C@@H](C)/C=C(\C)[C@H](OC(N)=O)[C@@H](OC)/C=C\C=C(/C)C(=O)NC(=CC1=O)C2=O [Geldanamycin] | 97.3%
c1ccc(C2CN3CCSC3=N2)cc1 (stereo not given) [Tetramisole] | 104%
COc1cc(Nc2ncc(F)c(Nc3ccc4c(n3)NC(=O)C(C)(C)O4)n2)cc(OC)c1OC [R406] | 102%
O=P(O)(NCCCl)NCCCl [Ifosfamide mustard] | 95.5%

same assay, conditions: 100 nM; incubation time: 72 h

Compound | normalised viability
CS(=O)(=O)CCNCc1ccc(-c2ccc3ncnc(Nc4ccc(OCc5cccc(F)c5)c(Cl)c4)c3c2)o1 [Lapatinib] | 59.9% and 59%
COC1=C2C[C@@H](C)C[C@H](OC)[C@H](O)[C@@H](C)/C=C(\C)[C@H](OC(N)=O)[C@@H](OC)/C=C\C=C(/C)C(=O)NC(=CC1=O)C2=O [Geldanamycin] | 51.3%
